Reference: ChEMBL document CHEMBL1949576, “Praziquantel derivatives exhibit activity against both juvenile and adult Schistosoma japonicum” (2012)

What was measured:
Assay type in all cases: functional
Schistosoma japonicum [1] = experiment: Antischistosomal activity against adult Schistosoma japonicum infected in mouse assessed as total worm reduction at 200 mg/kg, po administered 21 days after infection relative to control; parameters: scale not given: the % may be the effect or the level left
Schistosoma japonicum [2] = experiment: Antischistosomal activity against adult Schistosoma japonicum assessed as worm survival at 20 uM after 24 hrs relative to control
Schistosoma japonicum [3] = experiment: Antischistosomal activity against adult Schistosoma japonicum assessed as worm survival at 25 uM after 72 hrs relative to control
Schistosoma japonicum [4] = experiment: Antischistosomal activity against adult Schistosoma japonicum assessed as worm survival at 50 uM after 48 hrs relative to control
Schistosoma japonicum [5] = experiment: Antischistosomal activity against adult Schistosoma japonicum assessed as worm survival at 20 uM after 48 hrs relative to control
Schistosoma japonicum [6] = experiment: Antischistosomal activity against juvenile Schistosoma japonicum assessed as worm survival at 50 uM after 72 hrs relative to control
Schistosoma japonicum [7] = experiment: Antischistosomal activity against adult Schistosoma japonicum assessed as worm survival at 15 uM after 24 hrs relative to control
Schistosoma japonicum [8] = experiment: Antischistosomal activity against juvenile Schistosoma japonicum assessed as worm survival at 25 uM after 72 hrs relative to control
Schistosoma japonicum [9] = experiment: Antischistosomal activity against juvenile Schistosoma japonicum assessed as worm survival at 50 uM after 48 hrs relative to control
Schistosoma japonicum [10] = experiment: Antischistosomal activity against juvenile Schistosoma japonicum assessed as worm survival at 25 uM after 48 hrs relative to control
Schistosoma japonicum [11] = experiment: Antischistosomal activity against juvenile Schistosoma japonicum assessed as worm survival at 25 uM after 24 hrs relative to control
Schistosoma japonicum [12] = experiment: Antischistosomal activity against adult Schistosoma japonicum assessed as worm survival at 50 uM after 72 hrs relative to control
Schistosoma japonicum [13] = experiment: Antischistosomal activity against adult Schistosoma japonicum assessed as worm survival at 25 uM after 24 hrs relative to control
Schistosoma japonicum [14] = experiment: Antischistosomal activity against juvenile Schistosoma japonicum infected in mouse assessed as total worm reduction at 200 mg/kg, po administered 14 days after infection relative to control; parameters: scale not given: the % may be the effect or the level left
Schistosoma japonicum [15] = experiment: Antischistosomal activity against juvenile Schistosoma japonicum assessed as worm survival at 50 uM after 24 hrs relative to control
Schistosoma japonicum [16] = experiment: Antischistosomal activity against adult Schistosoma japonicum assessed as worm survival at 25 uM after 48 hrs relative to control
Schistosoma japonicum [17] = experiment: Antischistosomal activity against adult Schistosoma japonicum assessed as worm survival at 20 uM after 72 hrs relative to control
Schistosoma japonicum [18] = experiment: Antischistosomal activity against adult Schistosoma japonicum assessed as worm survival at 15 uM after 72 hrs relative to control
Schistosoma japonicum [19] = experiment: Antischistosomal activity against adult Schistosoma japonicum assessed as worm survival at 50 uM after 24 hrs relative to control
Schistosoma japonicum [20] = experiment: Antischistosomal activity against adult Schistosoma japonicum assessed as worm survival at 15 uM after 48 hrs relative to control
Schistosoma japonicum [21] = experiment: Antischistosomal activity against adult Schistosoma japonicum assessed as worm survival at 80 uM after 72 hrs relative to control
Schistosoma japonicum [22] = experiment: Antischistosomal activity against adult Schistosoma japonicum assessed as worm survival at 100 uM after 48 hrs relative to control
Schistosoma japonicum [23] = experiment: Antischistosomal activity against adult Schistosoma japonicum assessed as worm survival at 100 uM after 72 hrs relative to control
Schistosoma japonicum [24] = experiment: Antischistosomal activity against adult Schistosoma japonicum assessed as worm survival at 80 uM after 48 hrs relative to control
Schistosoma japonicum [25] = experiment: Antischistosomal activity against adult Schistosoma japonicum assessed as worm survival at 80 uM after 24 hrs relative to control
Schistosoma japonicum [26] = experiment: Antischistosomal activity against adult Schistosoma japonicum assessed as worm survival at 100 uM after 24 hrs relative to control
Schistosoma japonicum [27] = experiment: Antischistosomal activity against adult Schistosoma japonicum assessed as worm survival at 70 uM after 24 hrs relative to control
Schistosoma japonicum [28] = experiment: Antischistosomal activity against adult Schistosoma japonicum assessed as worm survival at 60 uM after 48 hrs relative to control
Schistosoma japonicum [29] = experiment: Antischistosomal activity against adult Schistosoma japonicum assessed as worm survival at 60 uM after 72 hrs relative to control
Schistosoma japonicum [30] = experiment: Antischistosomal activity against adult Schistosoma japonicum assessed as worm survival at 60 uM after 24 hrs relative to control
Schistosoma japonicum [31] = experiment: Antischistosomal activity against adult Schistosoma japonicum assessed as worm survival at 70 uM after 72 hrs relative to control
Schistosoma japonicum [32] = experiment: Antischistosomal activity against adult Schistosoma japonicum assessed as worm survival at 70 uM after 48 hrs relative to control
Schistosoma japonicum [33] = experiment: Antischistosomal activity against juvenile Schistosoma japonicum assessed as worm survival at 100 uM after 48 hrs relative to control
Schistosoma japonicum [34] = experiment: Antischistosomal activity against juvenile Schistosoma japonicum assessed as worm survival at 100 uM after 72 hrs relative to control
Schistosoma japonicum [35] = experiment: Antischistosomal activity against juvenile Schistosoma japonicum assessed as worm survival at 100 uM after 24 hrs relative to control

Structure (SMILES) | Activity (Schistosoma japonicum [1]) | survival at 50 µM (Schistosoma japonicum [4]) | survival at 50 µM (Schistosoma japonicum [6]) | survival at 50 µM (Schistosoma japonicum [9]) | survival at 50 µM (Schistosoma japonicum [12]) | Activity (Schistosoma japonicum [14]) | survival at 50 µM (Schistosoma japonicum [15]) | survival at 50 µM (Schistosoma japonicum [19]) | survival at 80 µM (Schistosoma japonicum [21]) | survival at 100 µM (Schistosoma japonicum [22]) | survival at 100 µM (Schistosoma japonicum [23]) | survival at 80 µM (Schistosoma japonicum [24]) | survival at 80 µM (Schistosoma japonicum [25]) | survival at 100 µM (Schistosoma japonicum [26]) | also measured
O=C(Nc1ccc2c(c1)C1CN(C(=O)C3CCCCC3)CC(=O)N1CC2)C1CCC2(CC1)OOC1(CCCCC1)OO2 (stereo unspecified) | 38.7% | 0% | 0% | 0% | 0% | 25.1% | 33.3% | 0% |  |  |  |  |  |  | survival at 20 µM (Schistosoma japonicum [2]): 100%; survival at 25 µM (Schistosoma japonicum [3]): 40%; survival at 20 µM (Schistosoma japonicum [5]): 100%; survival at 15 µM (Schistosoma japonicum [7]): 100%; survival at 25 µM (Schistosoma japonicum [8]): 12.5%; survival at 25 µM (Schistosoma japonicum [10]): 33.3%; survival at 25 µM (Schistosoma japonicum [11]): 37.5%; survival at 25 µM (Schistosoma japonicum [13]): 60%; survival at 25 µM (Schistosoma japonicum [16]): 0%; survival at 20 µM (Schistosoma japonicum [17]): 100%; survival at 15 µM (Schistosoma japonicum [18]): 100%; survival at 15 µM (Schistosoma japonicum [20]): 100%
O=C(Oc1ccc2c(c1)C1CN(C(=O)C3CCCCC3)CC(=O)N1CC2)C1CCC2(CC1)OOC1(CCCCC1)OO2 (stereo unspecified) |  | 80% | 14.3% | 14.3% | 80% |  | 0% | 40% | 40% | 20% | 0% | 80% | 80% | 80% | 
O=C(Nc1ccc2c(c1)C1CN(C(=O)C3CCCCC3)CC(=O)N1CC2)C1CCC2(CC1)OOC1(O2)C2CC3CC(C2)CC1C3 (stereo unspecified) |  | 100% |  |  | 100% |  |  | 100% |  |  |  |  |  |  | 
O=C(Oc1ccc2c(c1)C1CN(C(=O)C3CCCCC3)CC(=O)N1CC2)C1CCC2(CC1)OOC1(O2)C2CC3CC(C2)CC1C3 (stereo unspecified) |  | 40% |  |  | 40% |  |  | 40% | 0% |  |  | 0% | 0% |  | survival at 70 µM (Schistosoma japonicum [27]): 20%; survival at 60 µM (Schistosoma japonicum [28]): 40%; survival at 60 µM (Schistosoma japonicum [29]): 40%; survival at 60 µM (Schistosoma japonicum [30]): 40%; survival at 70 µM (Schistosoma japonicum [31]): 20%; survival at 70 µM (Schistosoma japonicum [32]): 40%
O=C(C1CCCCC1)N1CC(=O)N2CCc3ccccc3C2C1 (stereo unspecified) [PRAZIQUANTEL] | 66.7% | 44.4% |  |  | 36.3% | 19.8% |  | 62.9% | 10% | 4.4% | 1.4% | 19.1% | 28.8% | 10% | survival at 100 µM (Schistosoma japonicum [33]): 100%; survival at 100 µM (Schistosoma japonicum [34]): 100%; survival at 100 µM (Schistosoma japonicum [35]): 100%
